Results published in ChEMBL document CHEMBL2073974, “Identification of a novel gene family encoding human liver-specific organic anion transporter LST-1” (J Biol Chem, 1999).

Assays:
[1] = target: T1, Solute carrier organic anion transporter family member 1B1 (Homo sapiens, UniProt Q9Y6L6); test: (§1) TP_TRANSPORTER: uptake in Xenopus laevis oocytes; format: functional, cell-based; conditions: oocyte
T1 sequence (Q9Y6L6 whole entry): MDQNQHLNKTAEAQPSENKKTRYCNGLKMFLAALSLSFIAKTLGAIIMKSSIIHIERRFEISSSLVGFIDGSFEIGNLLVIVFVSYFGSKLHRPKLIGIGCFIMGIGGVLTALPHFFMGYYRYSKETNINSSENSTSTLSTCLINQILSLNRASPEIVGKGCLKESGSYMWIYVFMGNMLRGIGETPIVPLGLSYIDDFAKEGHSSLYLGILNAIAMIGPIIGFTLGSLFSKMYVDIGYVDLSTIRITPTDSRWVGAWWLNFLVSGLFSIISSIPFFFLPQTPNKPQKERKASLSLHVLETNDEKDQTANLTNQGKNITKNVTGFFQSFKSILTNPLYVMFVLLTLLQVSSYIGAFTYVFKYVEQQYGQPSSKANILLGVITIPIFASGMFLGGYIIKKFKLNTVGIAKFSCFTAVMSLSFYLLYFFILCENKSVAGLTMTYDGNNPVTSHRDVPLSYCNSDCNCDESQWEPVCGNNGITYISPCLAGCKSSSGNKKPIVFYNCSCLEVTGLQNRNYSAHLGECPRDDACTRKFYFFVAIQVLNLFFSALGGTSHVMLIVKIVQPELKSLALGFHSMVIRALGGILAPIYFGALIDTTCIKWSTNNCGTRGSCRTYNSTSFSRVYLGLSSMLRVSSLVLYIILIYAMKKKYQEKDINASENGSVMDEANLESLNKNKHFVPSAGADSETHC

[2] = substrate: N[C@@H](Cc1cc(I)c(Oc2ccc(O)c(I)c2)c(I)c1)C(=O)O; test: as §1; format: functional, cell-based, Oocyte
[3] = substrate: N[C@@H](Cc1cc(I)c(Oc2cc(I)c(O)c(I)c2)c(I)c1)C(=O)O; test: as §1; format: functional, cell-based, Oocyte

Molecule | Activity [1] | Km [2] [µM] | Km [3] [µM]
CCCCC[C@H](O)/C=C/[C@H]1[C@H](O)CC(=O)[C@@H]1C/C=C\CCCC(=O)O [DINOPROSTONE] | substrate [+] |  | 
CCCCC[C@H](O)/C=C/[C@H]1OC(O)C[C@H](O)[C@@H]1C/C=C\CCCC(=O)O (stereo partly drawn) [THROMBOXANE B2] | substrate [+] |  | 
CCCCC/C=C\C\C=C/C=C/C=C/[C@@H](SC[C@H](N)C(=O)O)[C@@H](O)CCCC(=O)O [LEUKOTRIEN E4] | substrate [+] |  | 
C[C@]12CC[C@H](OS(=O)(=O)O)CC1=CC[C@@H]1[C@@H]2CC[C@]2(C)C(=O)CC[C@@H]12 [PRASTERONE SULFURIC ACID] | substrate [+] |  | 
C[C@]12CC[C@@H]3c4ccc(O)cc4CC[C@H]3[C@@H]1CC[C@@H]2O[C@@H]1O[C@H](C(=O)O)[C@@H](O)[C@H](O)[C@H]1O [ESTRADIOL 17B GLUCURONIDE] | substrate [+] |  | 
CCCCC/C=C\C\C=C/C=C/C=C/[C@@H](SC[C@@H](NC(=O)CC[C@H](N)C(=O)O)C(=O)NCC(=O)O)[C@@H](O)CCCC(=O)O [LEUKOTRIEN C4] | substrate [+] |  | 
Solute carrier organic anion transporter family member 1B1 (Homo sapiens) (protein) MDQNQHLNKTAEAQPSENKKTRYCNGLKMFLAALSLSFIAKTLGAIIMKSSIIHIERRFEISSSLVGFIDGSFEIGNLLVIVFVSYFGSKLHRPKLIGIGCFIMGIGGVLTALPHFFMGYYRYSKETNINSSENSTSTLSTCLINQILSLNRASPEIVGKGCLKESGSYMWIYVFMGNMLRGIGETPIVPLGLSYIDDFAKEGHSSLYLGILNAIAMIGPIIGFTLGSLFSKMYVDIGYVDLSTIRITPTDSRWVGAWWLNFLVSGLFSIISSIPFFFLPQTPNKPQKERKASLSLHVLETNDEKDQTANLTNQGKNITKNVTGFFQSFKSILTNPLYVMFVLLTLLQVSSYIGAFTYVFKYVEQQYGQPSSKANILLGVITIPIFASGMFLGGYIIKKFKLNTVGIAKFSCFTAVMSLSFYLLYFFILCENKSVAGLTMTYDGNNPVTSHRDVPLSYCNSDCNCDESQWEPVCGNNGITYISPCLAGCKSSSGNKKPIVFYNCSCLEVTGLQNRNYSAHLGECPRDDACTRKFYFFVAIQVLNLFFSALGGTSHVMLIVKIVQPELKSLALGFHSMVIRALGGILAPIYFGALIDTTCIKWSTNNCGTRGSCRTYNSTSFSRVYLGLSSMLRVSSLVLYIILIYAMKKKYQEKDINASENGSVMDEANLESLNKNKHFVPSAGADSETHC |  | 2.7 | 3
